{"source": "patent US20210222208A1", "about": "“SUGAR-DERIVED STIMULANT FOR ENHANCEMENT OF AEROBIC AND ANAEROBIC FERMENTATION PERFORMANCE” (priority 2018, published 2021)", "test_system": "S. cerevisiae M11205", "format": "cell-based, Saccharomyces cerevisiae"}
{"smiles": "OCCCCO", "note": "[1,4-butanediol]", "values": [{"measurement": "Contribution to enhancement at higher sugar concentrations", "result": "no distinct contribution for enhancement"}, {"measurement": "Contribution to stimulant properties versus control without addition", "result": "not itself a contributor to the stimulant properties"}, {"measurement": "Day 5 % of Theoretical Max. Ethanol Yield", "result": 88.8, "unit": "%"}, {"measurement": "Effect on fermentation rates", "result": "does not create the increased fermentation rates"}]}
